From publication PMC7534330, “UHPLC-MS/MS method for pharmacokinetic and bioavailability determination of five bioactive components in raw and various processed products of Polygala tenuifolia in rat plasma” (Pharmaceutical Biology, 2020)

Legend:
[1] = Stability of the five analytes in rat plasma; assay type: in vitro ADME; conditions: rat; for Long-term stability, Mean: 4 weeks; for Short-term stability, Mean: 5 h; for Auto-sampler stability, Mean: 24 h
Experimental: Stock standards of A5, A6, DSS, TFSA, TMCA and IS were prepared in methanol at a concentration of 1 mg/mL. A series of working standard solutions of the targeted compounds ranging from 10 to 20,000 ng/mL and the IS solution at 600 ng/mL were prepared by diluting the stock solutions with methanol and maintained at −20 °C. Calibration standards were freshly prepared by spiking the series of standard solutions (30 μL) including the IS into blank rat plasma (270 μL) to achieve concentrations of 1, 10, 50, 100, 500, 1000, 1600 and 2000 ng/mL. Quality control (QC) samples were prepared independently at low (2 ng/mL), medium (600 ng/mL) and high (1600 ng/mL) concentrations following the same method for the five compounds.
Stability studies included short-term stability (5 h at room temperature, i.e. 25 °C), freeze-thaw stability (three consecutive freeze-thaw cycles from −20 °C to room temperature), autosampler stability (24 h storage in the autosampler at 4 °C) and long-term stability (4 weeks storage at −80 °C). The stability data of all analytes are presented in Supplementary Table S4.

[2] = Pharmacokinetics and absolute bioavailability of five compounds after oral and i.v. administration (UHPLC-MS/MS); assay type: in vivo; conditions: rat, in vivo; for AUCΔ0-t (dose-normalized) / AUCΔ0-∞ (dose-normalized) / CΔmax (dose-normalized) / half-life / Tmax: SD
Experimental: (§1) A Thermo Hypersil Gold C18 column (3.0 × 100 mm, i.d.; 3 μm) was used for chromatographic separation. An aqueous 10 mM ammonium acetate solution (A) and acetonitrile (B) were selected as the mobile phase components. The optimal gradient program involved the following steps: 5% B (0–1 min), changing to 85% B (1–3.5 min), 85% B (3.5–4.0 min), changing to 5% B (4.0–4.1 min) and 5% B (4.1–5.0 min). The flow rate was set to 0.4 mL/min, the autosampler was maintained at 4 °C and the injection volume was 5 μL.
(§2) UHPLC-MS/MS was conducted by an Applied Biosystems (AB) Sciex Exion LC system (Foster City, CA) connected to a 6500 + triple quad tandem mass spectrometer with an electrospray ionization source. All detection and quantifications were carried out in positive multiple reaction monitoring (MRM) mode. The optimized parameters were programmed as follows: ion source temperature, 500 °C; curtain gas pressure, 30 kPa; ion source gas 1 pressure, 55 kPa; ion source gas 2 pressure, 55 kPa; and ion spray voltage, […]. The chemical structures and ion mass spectra of targeted compounds are shown in Figure 1. The precursor ion and product ion were m/z 517.1 → 174.9 for A5, m/z 547.0 → 204.9 for A6, m/z 753.2 → 205.2 for DSS, m/z 681.3 → 443.3 for TFSA, m/z 236.8 → 103.2 for TMCA and m/z 136.9 → 92.9 for IS. All data were acquired by using AB Sciex Analyst software (version 1.6.3).
(§3) After thawing the frozen blood samples at room temperature, a 100 μL aliquot of plasma was spiked with 50 μL of the IS working solution in 2 mL EP tubes, and 750 μL of methanol was added into each of the tubes. Then, these tubes were mixed on a multi-tube Vortexer for 0.5 min before centrifugation at 11,800×g for 10 min. Finally, 200 μL of the obtained supernatant was transferred to a fresh autosampler vial, and then 5 μL of the sample was injected for analysis.
The SD rats were randomly divided into oral and i.v. groups for A5, A6, DSS, TFSA and TMCA administration (n = 6 in each group). The oral doses of A5, A6, DSS, TFSA and TMCA groups were 7.40, 11.60, 16.00, 50.00 and 3.11 mg/kg, respectively, and the corresponding i.v. doses were 0.74, 1.16, 1.60, 5.00 and 0.31 mg/kg, respectively. Blood samples were collected from the suborbital vein into heparinized tubes before and 0, 0.083, 0.17, 0.25, 0.5, 1, 2, 3, 5 and 8 h after administration. The treatment method of blood samples was the same as that mentioned above.
(§4) The elementary pharmacokinetic parameters of plasma samples were analyzed by DAS 2.0 pharmacokinetic software. One-way analysis of variance (ANOVA) was used for statistical comparison for pharmacokinetic and interaction studies. A p-value < 0.05 indicated a significant difference. The main parameters considered were as follows: AUC0–∞ (the area under the blood concentration-time curve from zero to infinity initial plasma concentration), MRT (the mean residence time), Cmax (peak plasma concentration) and Tmax (time to reach Cmax for oral dose), t1/2 (elimination half-life) (He et al. [2015]). The absolute bioavailability (F) was evaluated as follows: F(%)=(AUCoral×Dosei.v.)/(AUCi.v.×Doseoral)×100%

[3] = Pharmacokinetics of five components in rat plasma after oral administration of RPT, LPT and HPT extracts (UHPLC-MS/MS); conditions: male, SD, in vivo, 1.9 g/kg; for AUC(0-t): AUC0-t; for AUC(0-inf): AUC0-∞; for MRT last: MRT0-t; for half-life: t1/2
Experimental: as §1, §2, §3
Male SD rats were randomly divided into four groups (n = 6 in each group), including the RPT group, LPT group, HPT group and control group. All oral administration samples were mixed with 0.5% CMC-Na (w/v) and then given to rats at a dose equivalent to 1.9 g/kg of RPT extract. The control group was orally treatment with equal volume of 0.5% CMC-Na solution. After a single administration, all blood samples were collected from the orbital vein into heparinized centrifuge tubes before administration (0 h) and at 0.083, 0.17, 0.25, 0.5, 0.75, 1, 1.5, 2, 3, 5, 8 and 12 h after administration and then centrifuged at 4 °C and 11,800×g for 10 min. The separated supernatant samples were preserved at −80 °C until they were measured.
as §4

## COc1cc(/C=C/C(=O)O[C@H]2[C@H](O)[C@@H](CO)O[C@@]2(CO)O[C@H]2O[C@H](CO)[C@@H](O)[C@H](O)[C@H]2O)ccc1O [A5, Sibiricose A5]
[1]; 2 ng/mL
  Freeze-thaw stability, Mean: 92.1%
  Long-term stability, Mean: 88.6%
  Short-term stability, Mean: 94.4%
  Auto-sampler stability, Mean: 89.4%
[1]; 600 ng/mL
  Freeze-thaw stability, Mean: 93.5%
  Long-term stability, Mean: 97.9%
  Short-term stability, Mean: 95.2%
  Auto-sampler stability, Mean: 94.2%
[1]; 1600 ng/mL
  Freeze-thaw stability, Mean: 101.6%
  Long-term stability, Mean: 96.6%
  Short-term stability, Mean: 98.3%
  Auto-sampler stability, Mean: 98.7%
[2]; iv
  AUCΔ0-t (dose-normalized): 368.32 ± 57.16 ng·h/mL
  AUCΔ0-∞ (dose-normalized): 368.34 ± 57.18 ng·h/mL
  CΔmax (dose-normalized): 1784.32 ± 136.39 ng/mL
  half-life: 1.22 ± 0.07 h
[2]; po
  AUCΔ0-t (dose-normalized): 11.99 ± 2.01 ng·h/mL
  AUCΔ0-∞ (dose-normalized): 12.01 ± 2.00 ng·h/mL
  CΔmax (dose-normalized): 9.21 ± 2.30 ng/mL
  half-life: 1.27 ± 0.55 h
  Tmax: 0.25 h
[2]
  F, absolute bioavailability: 3.25 % of dose
[3]
  Tmax: 2.60 ± 0.71 h
  AUC(0-t): 552 ± 31.1 ng·h/mL
  AUC(0-inf): 553 ± 47.1 ng·h/mL
  Cmax: 169 ± 16.1 ng/mL
  MRT last: 2.64 ± 0.18 h
  half-life: 1.23 ± 0.21 h
[3]; Tmax
  Tmax: 2 h

## COc1cc(C=CC(=O)OC2C(O)C(CO)OC2(CO)OC2OC(CO)C(O)C(O)C2O)cc(OC)c1O (centres unmarked) [A6, Sibiricose A6]
[1]; 2 ng/mL
  Freeze-thaw stability, Mean: 92.4%
  Long-term stability, Mean: 93.5%
  Short-term stability, Mean: 91.5%
  Auto-sampler stability, Mean: 87.5%
[1]; 600 ng/mL
  Freeze-thaw stability, Mean: 91.5%
  Long-term stability, Mean: 96.3%
  Short-term stability, Mean: 94.7%
  Auto-sampler stability, Mean: 92.1%
[1]; 1600 ng/mL
  Freeze-thaw stability, Mean: 98.3%
  Long-term stability, Mean: 96.5%
  Short-term stability, Mean: 97.4%
  Auto-sampler stability, Mean: 97.3%
[2]; iv
  AUCΔ0-t (dose-normalized): 299.15 ± 100.23 ng·h/mL
  AUCΔ0-∞ (dose-normalized): 299.16 ± 100.23 ng·h/mL
  CΔmax (dose-normalized): 1204.66 ± 249.66 ng/mL
  half-life: 0.59 ± 0.1 h
[2]; po
  AUCΔ0-t (dose-normalized): 8.82 ± 2.40 ng·h/mL
  AUCΔ0-∞ (dose-normalized): 8.82 ± 2.40 ng·h/mL
  CΔmax (dose-normalized): 4.95 ± 1.64 ng/mL
  half-life: 0.62 ± 0.16 h
  Tmax: 0.5 h
[2]
  F, absolute bioavailability: 2.95 % of dose
[3]
  AUC(0-t): 570 ± 179 ng·h/mL
  AUC(0-inf): 572 ± 179 ng·h/mL
  Cmax: 183 ± 30.8 ng/mL
  MRT last: 3.21 ± 0.78 h
  half-life: 1.43 ± 0.12 h
[3]; Tmax
  Tmax: 3.2 ± 1.64 h

## COc1cc(C=CC(=O)OCC2OC(OC3(CO)OC(CO)C(O)C3OC(=O)C=Cc3cc(OC)c(O)c(OC)c3)C(O)C(O)C2O)cc(OC)c1O (centres unmarked) [DSS, 3,6′-disinapoyl sucrose]
[1]; 2 ng/mL
  Freeze-thaw stability, Mean: 89.3%
  Long-term stability, Mean: 95.3%
  Short-term stability, Mean: 95.3%
  Auto-sampler stability, Mean: 92.1%
[1]; 600 ng/mL
  Freeze-thaw stability, Mean: 97.3%
  Long-term stability, Mean: 97.3%
  Short-term stability, Mean: 98.5%
  Auto-sampler stability, Mean: 97.7%
[1]; 1600 ng/mL
  Freeze-thaw stability, Mean: 99.7%
  Long-term stability, Mean: 93.2%
  Short-term stability, Mean: 98.1%
  Auto-sampler stability, Mean: 98.6%
[2]; iv
  AUCΔ0-t (dose-normalized): 106.32 ± 12.09 ng·h/mL
  AUCΔ0-∞ (dose-normalized): 107.00 ± 12.09 ng·h/mL
  CΔmax (dose-normalized): 682.88 ± 120.92 ng/mL
  half-life: 0.98 ± 0.27 h
[2]; po
  AUCΔ0-t (dose-normalized): 2.51 ± 1.07 ng·h/mL
  AUCΔ0-∞ (dose-normalized): 2.86 ± 1.33 ng·h/mL
  CΔmax (dose-normalized): 4.39 ± 1.69 ng/mL
  half-life: 1.01 ± 0.45 h
  Tmax: 0.17 h
[2]
  F, absolute bioavailability: 2.36 % of dose
[3]
  Cmax: 74.1 ± 30.2 ng/mL
